Data: ChEMBL document CHEMBL1201862, “PubChem BioAssay data set” (2004)
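All cell lines were grown in 96-well plates and treated with compound for 48 hours. Here, GI50 denotes the concentration required for 50% inhibition of growth.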 The source made the active and inactive calls. Cut-off read from the data, not from the text of the source: active = GI50 up to about 1.1 µM and inactive = higher.

Experiments:
Assay in all cases: inhibition of tumour cell growth, NCI panel, 48 h
[1] = system: DLD-1
[2] = system: DMS-273
[3] = system: HOP-18
[4] = system: KM-20L2
[5] = system: LXFL 529
[6] = system: M19-MEL
[7] = system: SNB-78
[8] = system: XF498
[9] = system: RXF 631

Measured: GI50

Nc1ccc(C(=O)NN2C(=O)C(Cl)C2c2ccccc2Cl)cc1 (stereo not given)
inactive: [1] 10.8 µM | [2] 3.2 µM | [3] 3.1 µM | [4] 15.8 µM | [5] 2.06 µM | [6] 7.94 µM | [7] 15.7 µM | [8] 17.5 µM

N#CC(c1ccc(Cl)cc1)c1cccc(C(C#N)c2ccc(Cl)cc2)n1 (stereo not given)
inactive: [1] 37.2 µM | [4] 38.8 µM | [5] 7.78 µM | [6] 19.6 µM | [7] 20.7 µM | [8] 5.13 µM

N#Cc1cn(-c2c3ccccc3nc3ccccc23)c(=O)[nH]c1=O
inactive: [1] 15.5 µM | [4] 7.38 µM | [5] 9.04 µM | [6] 6.46 µM | [7] 13.5 µM | [8] 11.6 µM

Cc1ccc(S(=O)(=O)c2c3nc4ccccc4nc3n3c2[nH]c2ccccc23)cc1
inactive: [1] > 100 µM | [2] 88.7 µM | [4] > 100 µM | [5] > 100 µM | [6] > 100 µM | [7] > 100 µM | [8] > 100 µM

C=C(CN(C)C)C(=O)c1ccc(C(=O)C(=C)CN(C)C)cc1
inactive: [1] > 100 µM | [3] > 100 µM | [4] > 100 µM | [5] > 100 µM | [6] > 100 µM | [8] > 100 µM

COc1ccc2c3c1C(=O)CCC3CO2 (stereo not given)
inactive: [1] > 100 µM | [2] > 100 µM | [4] > 100 µM | [5] > 100 µM | [6] > 100 µM | [9] > 100 µM | [7] > 100 µM | [8] > 100 µM

CN1C2C=C(c3ccccc3)CC1CC2 (stereo not given)
inactive: [1] > 100 µM | [3] > 100 µM | [4] > 100 µM | [5] > 100 µM | [6] > 100 µM | [8] > 100 µM

Cc1cccc(C(C)C)c1NC(=O)C(=O)CC(=O)c1c(C)[n+]([O-])c2ccccc2[n+]1[O-]
inactive: [2] 33.8 µM | [3] 96.4 µM | [4] 37.6 µM | [5] 34 µM | [6] 19.8 µM | [9] 18.1 µM | [7] 49 µM

C[C@@H](c1ccccc1)N(CC#N)C1CCC[C@H]1O (stereo not given in full)
inactive: [2] > 100 µM | [3] > 100 µM | [4] > 100 µM | [6] > 100 µM | [9] > 100 µM | [7] > 100 µM | [8] > 100 µM

Cc1ccc(-c2nnc(-c3nn(-c4ccccc4)c4nc5ccccc5nc34)o2)cc1
inactive: [1] 16.9 µM | [2] 20.1 µM | [3] 27.9 µM | [4] 42.4 µM | [5] 10.6 µM | [6] 22.1 µM | [7] 19.8 µM | [8] 11.4 µM

CCOc1cccc2ccc[n+](CC)c12
inactive: [1] > 100 µM | [2] 35.8 µM | [3] > 100 µM | [4] 52.2 µM | [5] 54.7 µM | [6] 41 µM | [9] > 100 µM | [8] 42.9 µM

CC1(C)CC(=O)C/C(=N/c2ccc([N+](=O)[O-])cc2)C1
inactive: [1] 21.1 µM | [2] > 100 µM | [3] > 100 µM | [4] > 100 µM | [5] > 100 µM | [6] 66.2 µM | [9] > 100 µM | [7] > 100 µM | [8] > 100 µM

CC1=NN(C(=O)CC(=O)Nc2ccccc2)C(=O)C1/N=N/c1ccc(S(N)(=O)=O)cc1 (stereo not given)
inactive: [1] 95.1 µM | [2] 63.5 µM | [3] > 100 µM | [4] > 100 µM | [5] 81.7 µM | [9] 91.6 µM | [7] 88.9 µM | [8] 56.8 µM

O=C1N(c2ccccc2)C(=O)C2(SC=NN2Cc2ccccc2)N1c1ccccc1 (stereo not given)
inactive: [1] > 100 µM | [3] > 100 µM | [4] > 100 µM | [5] > 100 µM | [6] > 100 µM | [7] > 100 µM | [8] > 100 µM

Cc1cc2c(=O)cc(-c3ccc(F)cc3)oc2c(C(=O)O)c1C
inactive: [1] > 100 µM | [2] > 100 µM | [3] > 100 µM | [4] > 100 µM | [5] > 100 µM | [6] > 100 µM | [9] > 100 µM | [7] > 100 µM | [8] > 100 µM

CC(=O)c1cccc(NCn2nnc3ccccc32)c1
inactive: [1] > 100 µM | [2] > 100 µM | [3] > 100 µM | [4] > 100 µM | [5] > 100 µM | [6] > 100 µM | [8] > 100 µM

COc1cc(/C=C2\NC(=O)C(Cc3cc(OC)c(OC)c(C)c3OC)N(C(C)=O)C2=O)c(OC)c(C)c1OC (stereo not given)
inactive: [1] > 100 µM | [2] > 100 µM | [3] 28.6 µM | [4] > 100 µM | [5] 72.8 µM | [6] > 100 µM

COC(=O)C1=C(O)c2cc(OC)c(OC)cc2C(c2ccc(OC)c(OC)c2)C1 (stereo not given)
inactive: [1] 44 µM | [2] 67.3 µM | [3] > 100 µM | [4] 86.7 µM | [5] 43.3 µM | [6] > 100 µM | [9] 49.1 µM | [7] > 100 µM | [8] 94.6 µM

C[C@@]12CCCC(=O)N1[C@@H](CO)C(c1ccccc1)O2 (stereo not given in full)
inactive: [1] > 100 µM | [2] > 100 µM | [3] > 100 µM | [4] > 100 µM | [6] > 100 µM | [7] > 100 µM | [8] > 100 µM

CC1(C)OC(=S)N(c2ccccc2)C12C=Cc1cc3ccccc3nc1S2 (stereo not given)
inactive: [1] 40.6 µM | [2] 97.3 µM | [4] > 100 µM | [5] 44 µM | [6] 93.8 µM | [8] > 100 µM

CC#C[I+]c1ccccc1
inactive: [1] 14.3 µM | [2] 13.1 µM | [3] 16.6 µM | [4] 17 µM | [5] 13.4 µM | [6] 17.8 µM | [9] 31.1 µM | [7] 22.7 µM | [8] 16.7 µM

CC#C[P+](c1ccccc1)(c1ccccc1)c1ccccc1
inactive: [1] 2.34 µM | [2] 2.11 µM | [3] 11.7 µM | [4] 6.71 µM | [5] 1.32 µM | [6] 2.9 µM | [7] 4.33 µM | [8] 2.39 µM

CCO/C=C1\N=C(C(Cl)c2ccccc2)OC1=O (stereo not given)
inactive: [1] > 100 µM | [2] > 100 µM | [4] > 100 µM | [5] > 100 µM | [6] > 100 µM | [7] > 100 µM | [8] > 100 µM

CC1(C)O[C@@H](CCl)C[C@@H](C#N)O1
inactive: [1] > 100 µM | [2] > 100 µM | [3] > 100 µM | [4] > 100 µM | [6] > 100 µM | [7] > 100 µM

COc1cc2c(oc(=O)c3c4occc4cc(OC)c23)c2cccc(O)c12
inactive: [1] > 100 µM | [2] > 100 µM | [3] > 100 µM | [4] > 100 µM | [5] > 100 µM | [6] > 100 µM | [7] > 100 µM | [8] > 100 µM

CNS(=O)(=O)NN(C)S(=O)(=O)c1ccc(OC)cc1
inactive: [1] > 100 µM | [2] > 100 µM | [4] > 100 µM | [5] > 100 µM | [6] > 100 µM | [9] > 100 µM | [8] > 100 µM
